Structures can show the parent of a compound that is named as a salt.
Experiment: Microdose study of 14C-AlphaHGA in healthy volunteers, plasma pharmacokinetics (AMS)
Assay type: in vivo, human
Description: In this example, the pharmacokinetics (PK) and oral bioavailability of AlphaHGA in adult healthy volunteers following a single ‘microdose’ in a sequence-randomized, cross-over study design (two periods 7 days apart) was determined. Clinical experiments were conducted with low-level radiolabelled (^14C) AlphaHGA administered intravenously (IV) orally (PO) with serial blood and urine samples were collected for concentration analysis utilizing accelerator mass spectrometry (AMS).
Accordingly, eight subjects were enrolled into a single dose cross-over study. The subjects were randomly assigned to one of two administration sequences. Subjects that were assigned to sequence 1 received AlphaHGA as an oral preparation first (Period 1) followed by the intravenous (IV) preparation 1 week later (Period 2). Subjects assigned to sequence 2 received AlphaHGA as an intravenous preparation first followed by the oral preparation 1 week later. Four subjects were assigned to sequence 1 and four subjects were assigned to sequence 2.
For both oral and IV doses subjects were administered 100 nCi (3.7 Kbq) of alphaHGA, which was determined to contain 1.602888×10ˆ6 fmol of ^14C. The specific activity of each dose was 46.619 MBq/mol (or 1.260 mCi/mol). A stock blend of ^14C-labelled alphaHGA was produced prior to the first study period. The actual formulations used for dosing were prepared on the morning prior to each study period. The infusion was a single bolus injection with both the infusion and flush were completed in less than 30 seconds.
Blood (5 ml) was collected following the administration of AlphaHGA orally or as an IV bolus at the following times: pre-dose (T=0) and 15, 30, 45, 60 minutes, and at 2, 3, 4, 6, 8, 10, 12, 16, 24 hours post-dose. All of the 224 scheduled blood samples were obtained. Blood specimens were drawn by intravenous in-dwelling catheter into 2×10 mL EDTA containing Vacutainer tubes and RBC's separated by centrifugation.
Plasma specimens (30 μL) were analyzed directly via the combustive procedure without further chemical manipulation. For the purposes of calculating ^14C concentration per volume of plasma, a general carbon content of 45% (dry mass) was applied. The urine was mixed with equal volumes (0.5 mL) of a sucrose carbon diluent solution (200 g/L) and mixed by inversion in a disposable polypropylene centrifuge tube. A 20-μL sample was graphitized for AMS analysis according to standard procedures. The mass fraction of the urine represented in the measured sample was inverted and multipled by the ^14C contents above background derived from the AMS measurement to calculate the ^14C content in the total urine void. A density value of 1 g/mL for urine was assumed to calculate its volume from the recorded masses.
Pharmacokinetic parameters were estimated by noncompartmental analysis employing the PK software WinNonlin version 4.1 (Pharsight Corporation, Palo Alto, Calif.). Statistical analyses were performed using either WinNonlin 4.1 or SPlus 2000 (Insightful Inc, Seattle, Wash.). All parameter calculations are reported from observed values and not from predicted values. However, observed and predicted values were very close and parameter estimates from both approaches were nearly equal.
. Values for the following PK parameters were estimated from plasma alphaHGA concentrations:
Maximum observed concentration (Cmax) and the time to reach Cmax (Tmax), the last quantified concentration (Clast), the time to Clast (Tlast), and time to the first quantified concentration (Tfirst) came from the experimentally observed values.
Terminal elimination rate constant (λz), was estimated from log-linear regression analysis of the apparent terminal phase of the plasma concentration-time profile. Weighting for the regression was 1/Y^2. The associated plasma half-life (T½) was calculated as T½=ln 2/λz. The point employed for estimating λz, were selected by the WinNonlin default curve stripping algorithm. […]

NC(=O)C(N)O (stereo not drawn) [AlphaHGA, α-Hydroxy-glycinamide hydrochloride]
AUC % Extrap (all subjects): less than 20%
terminal elimination half-life in the plasma (following both routes of administration): approximately 10 hours
absorption (oral administration): rapidly and completely absorbed after oral administration
AUC % Extrap (plasma, Period 1, Max): 17.43%
AUCTmax (plasma, Period 1, Max): 0.02396 nM·h
AUCinf (plasma, Period 1, Max): 0.43166 nM·h
AUClast (plasma, Period 1, Max): 0.39184 nM·h
Az (plasma, Period 1, Max): 0.084 h⁻¹
Clast (plasma, Period 1, Max): 0.00462 nM
Cmax (plasma, Period 1, Max): 0.0668 nM
T ½ (plasma, Period 1, Max): 10.32 h
Tmax (plasma, Period 1, Max): 1.00 h
AUC % Extrap (plasma, Period 1, Mean): 13.16%
AUCTmax (plasma, Period 1, Mean): 0.01354 nM·h
AUCinf (plasma, Period 1, Mean): 0.35555 nM·h
AUClast (plasma, Period 1, Mean): 0.30901 nM·h
Az (plasma, Period 1, Mean): 0.074 h⁻¹
Clast (plasma, Period 1, Mean): 0.0034 nM
Cmax (plasma, Period 1, Mean): 0.0477 nM
T ½ (plasma, Period 1, Mean): 9.45 h
Tmax (plasma, Period 1, Mean): 0.50 h
AUC % Extrap (plasma, Period 1, Min): 9.23%
AUCTmax (plasma, Period 1, Min): 0.00422 nM·h
AUCinf (plasma, Period 1, Min): 0.27962 nM·h
AUClast (plasma, Period 1, Min): 0.24083 nM·h
Az (plasma, Period 1, Min): 0.067 h⁻¹
Clast (plasma, Period 1, Min): 0.00267 nM
Cmax (plasma, Period 1, Min): 0.0337 nM
T ½ (plasma, Period 1, Min): 8.26 h
Tmax (plasma, Period 1, Min): 0.25 h
AUC % Extrap (plasma, Period 2, Max): 19.51%
AUCTmax (plasma, Period 2, Max): 0.04903 nM·h
AUCinf (plasma, Period 2, Max): 0.4907 nM·h
AUClast (plasma, Period 2, Max): 0.46442 nM·h
Az (plasma, Period 2, Max): 0.118 h⁻¹
Clast (plasma, Period 2, Max): 0.00459 nM
Cmax (plasma, Period 2, Max): 0.076 nM
T ½ (plasma, Period 2, Max): 12.80 h
Tmax (plasma, Period 2, Max): 2.00 h
AUC % Extrap (plasma, Period 2, Mean): 13.94%
AUCTmax (plasma, Period 2, Mean): 0.01698 nM·h
AUCinf (plasma, Period 2, Mean): 0.3847 nM·h
AUClast (plasma, Period 2, Mean): 0.33218 nM·h
Az (plasma, Period 2, Mean): 0.073 h⁻¹
Clast (plasma, Period 2, Mean): 0.00356 nM
Cmax (plasma, Period 2, Mean): 0.0574 nM
T ½ (plasma, Period 2, Mean): 10.06 h
Tmax (plasma, Period 2, Mean): 0.59 h
AUC % Extrap (plasma, Period 2, Min): 5.36%
AUCTmax (plasma, Period 2, Min): 0.00615 nM·h
AUCinf (plasma, Period 2, Min): 0.32388 nM·h
AUClast (plasma, Period 2, Min): 0.27076 nM·h
Az (plasma, Period 2, Min): 0.054 h⁻¹
Clast (plasma, Period 2, Min): 0.00292 nM
Cmax (plasma, Period 2, Min): 0.0392 nM
T ½ (plasma, Period 2, Min): 5.88 h
Tmax (plasma, Period 2, Min): 0.25 h
AUC % Extrap (plasma, Route iv, Max): 19.51%
AUCTmax (plasma, Route iv, Max): 0.02396 nM·h
AUCinf (plasma, Route iv, Max): 0.43166 nM·h
AUClast (plasma, Route iv, Max): 0.39184 nM·h
Az (plasma, Route iv, Max): 0.084 h⁻¹
Clast (plasma, Route iv, Max): 0.00462 nM
Cmax (plasma, Route iv, Max): 0.0722 nM
T ½ (plasma, Route iv, Max): 12.80 h
